Patent US9119874B2, “Cell-penetrating markers of apoptosis” (TRUSTEES OF BOSTON COLLEGE, priority 2012, dated 2015)

Tested on: Jurkat cells
Test: Confocal microscopy of stained Jurkat cells with and without CPT treatment
Format: cell-based
Description: FIGS. 5A-5D are confocal microscopy images of F1-EA staining Jurkat cell samples without the washing step. FIGS. 5A and 5C display the FITC channel; FIGS. 5B and 5D display the phase contrast channel.
FIGS. 6A-6D are micrographs depicting representative confocal images.
FIGS. 8A-8D are a series of micrographs depicting confocal microscopy images of Rhodamine B and Rd-EA staining Jurkat cell samples. FIGS. 8A and 8B show Rhodamine B stained cells while FIGS. 8C and 8D show Rd-EA stained cells. FIGS. 8A and 8C are CPT treated cells while
The specificity of F1-EA for apoptotic cells were further validated through a costaining experiment with the R-phycoerythrin labeled annexin V (AV-PE, yellow emission). […] The flow cytometry result was further validated with confocal microscopy analysis.

In the case of CCN(CC)c1ccc2c(-c3ccccc3C(=O)O)c3ccc(=[N+](CC)CC)cc-3oc2c1.[Cl-] [Rhodamine B], the “selectivity of staining for apoptotic cells” value (confocal images, CPT-treated vs untreated Jurkat cells) is reported as “no selectivity”.

B1: AV-PE: R-phycoerythrin labeled annexin V (protein, UniProt P08758 2-320, looked up)
Annexin A5: AQVLRGTVTDFPGFDERADAETLRKAMKGLGTDEESILTLLTSRSNAQRQEISAAFKTLFGRDLLDDLKSELTGKFEKLIVALMKPSRLYDAYELKHALKGAGTNEKVLTEIIASRTPEELRAIKQVYEEEYGSSLEDDVVGDTSGYYQRMLVVLLQANRDPDAGIDEAQVEQDAQALFQAGELKWGTDEEKFITIFGTRSVSHLRKVFDKYMTISGFQIEETIDRETSGNLEQLLLAVVKSIRSIPAYLAETLYYAMKGAGTDDHTLIRVMVSRSEIDLFNIRKEFRKNFATSLYSMIKGDTSGDYKKALLLLCGEDD
modifications: R-phycoerythrin label
notes: R-phycoerythrin labeled annexin V
B1 was tested, and the “location of the stain in CPT-treated cells” value (confocal image, CPT-treated Jurkat cells) was “membrane location”.
